One assay deals with T1, human 5-LOX (Homo sapiens, UniProt P09917).
T1 construct: purchased Cayman 60402; host or cells: insect cells (lysate)
T1 sequence (P09917 1-674): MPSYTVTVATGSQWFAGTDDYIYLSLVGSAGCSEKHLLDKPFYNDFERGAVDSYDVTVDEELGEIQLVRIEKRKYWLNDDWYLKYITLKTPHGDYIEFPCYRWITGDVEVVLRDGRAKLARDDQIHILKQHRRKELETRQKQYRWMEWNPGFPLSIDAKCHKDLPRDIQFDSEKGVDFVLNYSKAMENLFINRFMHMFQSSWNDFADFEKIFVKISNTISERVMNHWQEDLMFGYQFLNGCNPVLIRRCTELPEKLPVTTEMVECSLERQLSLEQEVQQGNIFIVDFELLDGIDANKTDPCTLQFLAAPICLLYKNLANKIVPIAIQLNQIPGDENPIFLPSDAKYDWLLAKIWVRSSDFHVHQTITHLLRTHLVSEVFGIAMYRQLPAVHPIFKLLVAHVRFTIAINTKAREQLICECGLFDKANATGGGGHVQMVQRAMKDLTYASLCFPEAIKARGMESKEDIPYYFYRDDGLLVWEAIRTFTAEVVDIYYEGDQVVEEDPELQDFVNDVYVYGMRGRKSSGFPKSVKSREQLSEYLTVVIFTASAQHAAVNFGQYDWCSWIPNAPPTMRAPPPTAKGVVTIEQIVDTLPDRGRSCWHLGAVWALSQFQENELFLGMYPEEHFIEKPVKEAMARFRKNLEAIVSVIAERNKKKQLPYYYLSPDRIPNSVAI
The assay can be described thus: 5-LOX enzyme activity, fluorescence method (5-HPETE, H2DCFDA). In kind it is biochemical. The conditions noted are these: read-out: 5-LO (IC50). As for the experimental part: The activity of compounds against 5-LOX were determined by measuring LTB4 (leukotriene B4) levels and/or by a fluorescence method. Both approaches are outlined in more detail below;
The compound, in a dose response manner(0.5 nM to 10 uM), and enzyme mixture was pre-incubated for 5 minutes, and the enzymatic reaction was initiated by addition of ATP and arachidonic acid to a final concentration of 100 uM and 3 uM, respectively. […] All steps were carried out at room temperature.

Assay [1] deals with Rat basophilic leukemia (RBL) cells. The assay can be described thus: LTB4 secretion assay in RBL (rat basophilic leukemia cells). Format: cell-based. The conditions noted are these: Rattus norvegicus, RBL. As for the experimental part: Rat basophilic leukemia (RBL) cells (ATCC, Cat #CRL-2256) were maintained in EMEM (ATCC, Cat #30-2003) supplemented with 15% FBS. The day before RBL assay, cells were seeded at a concentration of 2×10^4 cells per well in 96-well plates. The media was replaced with 100 ul of EMEM supplemented with 0.5% FBS and compounds in dose response(5 nM to 100 uM) were added. After 15 min of pre-incubation at 37° C., arachidonic acid and calcium ionophore (A23187) were added to give a final concentration of 2.5 uM and 5 uM, respectively. After a further 10 min incubation at 37° C., culture supernatant was transferred and quantification of LTB4 was done with a Leukotriene B4 EIA kit (Cayman, Cat #520111) as instructed.

Turning to `Cn1nc(CF)cc1Nc1ccc2nc(NCc3ccc(Oc4ncc(Cl)cn4)cc3)n(C)c2c1` [Compound 539], the IC50 (usually the midpoint of a concentration-inhibition curve) at human 5-LOX is under 1 µM. In assay [1], the EC50 – broadly, the concentration at which the effect is half-maximal – was under 10 µM.

For `Cn1c(NCc2ccc(Oc3ccc(Cl)cn3)cc2)nc2ccc(NC(C)(C)CO)cc21` [Compound 325], the half-maximal inhibitory concentration (IC50) at human 5-LOX was under 1 µM. Moreover, the concentration for a half-maximal effect (EC50) in assay [1] is under 10 µM.

Consider `Cn1c(NCc2ccc(COc3ccc(Cl)cn3)cc2)nc2ccc(N)cc21` [Compound 304], for which, on human 5-LOX, the half-inhibitory concentration (IC50) was under 1 µM. This molecule came in with a concentration giving a half-maximal response (EC50) in assay [1] of under 10 µM.

Regarding `Cn1c(NCc2ccc(Oc3ncc(Cl)cn3)cc2)nc2ccc(NC(N)=O)cc21` [Compound 429], the concentration for half-maximal inhibition (IC50) on human 5-LOX was over 10 µM. This molecule came in with an EC50 in assay [1] of 10 to 20 µM.

Turning to `Nc1ccc2[nH]c(NCc3ccc(F)cc3)nc2c1` [Compound 28], the concentration for half-maximal inhibition (IC50) on human 5-LOX was under 1 µM. For the same molecule, the EC50 in assay [1] lay in the range of 10 to 20 µM.

For the molecule `Cn1c(NCc2ccc(Oc3ccnc4c(Cl)cccc34)cc2)nc2ccc(N)cc21` [Compound 387], the concentration for half-maximal inhibition (IC50) on human 5-LOX is under 1 µM. Also, in assay [1], the EC50 was under 10 µM.

For the molecule `Cn1c(NCc2ccc(-n3ccc4cc(Cl)cnc43)cc2)nc2ccc(NC3COC3)cc21` [Compound 446], the IC50 on human 5-LOX is under 1 µM. For the same molecule, the 50% effective concentration (EC50) in assay [1] is under 10 µM.

As for `Cn1c(NCc2ccc(Oc3ccc(Cl)cn3)cc2Cl)nc2ccc(N)cc21` [Compound 285], the IC50 at human 5-LOX is under 1 µM. For the same molecule, the EC50 in assay [1] was under 10 µM.

Take `Cn1c(NCc2ccc(-n3ccc4cc(Cl)cnc43)cc2)nc2ccc(N)cc21` [Compound 445]: the IC50 at human 5-LOX was under 1 µM. Further, the EC50 in assay [1] is under 10 µM.

As to `Cn1c(NCc2ccc(Oc3ncc(Cl)cn3)cc2)nc2ccc(NC3CN(C(N)=O)C3)cc21` [Compound 408], the IC50 on human 5-LOX is under 1 µM. Besides, the half-maximal effective concentration (EC50) in assay [1] was over 20 µM.

For `Nc1ccc2nc(NCc3ccc4c(c3)NCCC4)[nH]c2c1` [Compound 162], at human 5-LOX, the IC50 is under 1 µM. This molecule had an EC50 in assay [1] of under 10 µM.

As for `COc1nc(Oc2ccc(CNc3nc4ccc(N)cc4n3C)cc2)ncc1Cl` [Compound 454], on human 5-LOX, the concentration for half-maximal inhibition (IC50) is under 1 µM. In addition, in assay [1], the 50% effective concentration (EC50) is 10 to 20 µM.

`CN(C)c1nc2ccc(NCc3ccc(N(Cc4ncco4)c4ccc(F)cc4)cc3)cc2[nH]1` [Compound 213]: the IC50 at human 5-LOX was under 1 µM. Besides, the EC50 in assay [1] is under 10 µM.

Consider `Cn1c(NCc2ccc(Nc3ncc(Cl)cn3)cc2)nc2ccc(N)cc21` [Compound 458], for which the IC50 at human 5-LOX is under 1 µM. The molecule also had an EC50 in assay [1] of under 10 µM.

As to `Cn1c(NCc2ccc(Oc3ccc(Cl)cc3)cc2)nc2ccc(NCC#N)cc21` [Compound 171], at human 5-LOX, the half-inhibitory concentration (IC50) was under 1 µM. The molecule also displayed a concentration giving a half-maximal response (EC50) in assay [1] of over 20 µM.

Consider `Nc1ccc2nc(NCc3ccc4cc(Cl)ccc4n3)[nH]c2c1` [Compound 156], for which, on human 5-LOX, the half-inhibitory concentration (IC50) is under 1 µM. Besides, the EC50 in assay [1] was in the range of 10 to 20 µM.

Regarding `Cn1c(NCc2ccc(Oc3nc4ccccc4n3C)cc2)nc2ccc(N)cc21` [Compound 356], the 50% inhibitory concentration (IC50) at human 5-LOX is under 1 µM. Further, in assay [1], the EC50 lay in the range of 10 to 20 µM.

On to `Cc1cc(CNc2nc3ccc(N)cc3n2C)ccc1Oc1ccc(Cl)cn1` [Compound 282], for which the half-maximal inhibitory concentration (IC50) at human 5-LOX was under 1 µM. In assay [1], this molecule had an EC50 of under 10 µM.

As for `CN(C)c1nc2cc(Nc3ccn(C)n3)ccc2n1CCOc1ccc(OC(F)(F)F)cc1` [Compound 46], the concentration for half-maximal inhibition (IC50) on human 5-LOX was over 10 µM. In assay [1], the concentration giving a half-maximal response (EC50) was under 10 µM.

As for `FC(F)(F)Oc1ccc(OC2CCN(c3ccc4nc(NCCN5CCOCC5)[nH]c4c3)C2)cc1` (centres unmarked) [Compound 143], the half-inhibitory concentration (IC50) on human 5-LOX is under 1 µM. In assay [1], this molecule had an EC50 of 10 to 20 µM.

Regarding `Cn1c(NCc2ccc(Oc3ccc4cc(Cl)ccc4n3)cc2)nc2ccc(NC3COC3)cc21` [Compound 390], the 50% inhibitory concentration (IC50) at human 5-LOX is under 1 µM. This molecule yielded a concentration for a half-maximal effect (EC50) in assay [1] of under 10 µM.

Take `CN(C)c1nc2ccc(NCc3ccc(N(Cc4ncc[nH]4)c4ccc(F)cc4)cc3)cc2[nH]1` [Compound 216]: the IC50 on human 5-LOX was under 1 µM. Further, the EC50 in assay [1] is under 10 µM.

On to `CC(C)(C)Nc1nc2cc(N)ccc2n1CC(=O)Nc1ccc(OC(F)(F)F)cc1` [Compound 69], for which, on human 5-LOX, the 50% inhibitory concentration (IC50) lay within 1 to 10 µM. The same molecule registered a concentration for a half-maximal effect (EC50) in assay [1] of under 10 µM.

Turning to `Cn1c(NCc2ccc(Oc3ncc(Cl)cn3)cn2)nc2ccc(NC3COC3)cc21` [Compound 355], on human 5-LOX, the IC50 is 1 to 10 µM. In assay [1], this molecule came in with a concentration for a half-maximal effect (EC50) of over 20 µM.

In the case of `CN(C(=O)c1ccc(CNc2nc3ccc(NC4COC4)cc3n2C)cc1)c1ccc(Cl)cn1` [Compound 320], the half-inhibitory concentration (IC50) at human 5-LOX was under 1 µM. This molecule also came in with an EC50 in assay [1] of over 20 µM.

For the molecule `Cc1cc(Oc2ccc(Cl)cn2)cc(C)c1CNc1nc2ccc(NC3COC3)cc2n1C` [Compound 335], at human 5-LOX, the 50% inhibitory concentration (IC50) is under 1 µM. This molecule showed an EC50 in assay [1] of under 10 µM.

Take `Cc1cc(Nc2ccc3nc(NCc4ccc(Oc5ncc(Cl)cn5)cc4)n(C)c3n2)n[nH]1` [Compound 500]: the concentration for half-maximal inhibition (IC50) on human 5-LOX was in the range of 1 to 10 µM. Also, the half-maximal effective concentration (EC50) in assay [1] was 10 to 20 µM.

Regarding `Nc1ccc2nc(N)n(Cc3ccc(Oc4ccc(Cl)cc4)nc3)c2c1` [Compound 240], the IC50 at human 5-LOX was under 1 µM. In assay [1], this molecule returned an EC50 of under 10 µM.

Regarding `Cn1c(NCc2ccc(Oc3ccc(Cl)nc3)cc2)nc2ccc(N)cc21` [Compound 280], the IC50 at human 5-LOX was under 1 µM. Also, the concentration for a half-maximal effect (EC50) in assay [1] was under 10 µM.

Consider `FC(F)(F)Oc1ccc(OC2CCN(c3ccc4nc(NCCCN5CCOCC5)[nH]c4c3)C2)cc1` (centres unmarked) [Compound 142], for which the IC50 at human 5-LOX was under 1 µM. This molecule also displayed an EC50 in assay [1] of 10 to 20 µM.

Consider `CC(C)n1c(NCc2ccc(Oc3ccc(Cl)cn3)cc2)nc2ccc(N)cc21` [Compound 258], for which, at human 5-LOX, the half-inhibitory concentration (IC50) was under 1 µM. For the same molecule, the half-maximal effective concentration (EC50) in assay [1] was under 10 µM.

Take `CCC(Nc1nc2ccc(Nc3cc(C(F)(F)F)n(C)n3)cc2n1C)c1ccc(Oc2ncc(C(F)(F)F)cn2)cc1` (centres unmarked) [Compound 520]: the 50% inhibitory concentration (IC50) on human 5-LOX is over 10 µM. Also, the half-maximal effective concentration (EC50) in assay [1] was under 10 µM.

As for `Cn1c(N2CCC(Oc3ccc(F)cc3)CC2)nc2cc(N)ccc21` [Compound 35], the IC50 at human 5-LOX is 1 to 10 µM. The EC50 in assay [1] is over 20 µM.

On to `CCOC(=O)CN(c1ccc(F)cc1)c1ccc(CNc2ccc3nc(N(C)C)[nH]c3c2)cc1` [Compound 185], for which the IC50 on human 5-LOX was under 1 µM. The molecule also registered a half-maximal effective concentration (EC50) in assay [1] of under 10 µM.

As for `Cn1ccnc1C(=O)c1ccc(CNc2nc3ccc(N)cc3[nH]2)cc1` [Compound 173], the IC50 at human 5-LOX was under 1 µM. The molecule further had a concentration for a half-maximal effect (EC50) in assay [1] of over 20 µM.

Take `COC(c1ccc(CNc2nc3ccc(NC4COC4)cc3[nH]2)cc1)c1ccccn1` (centres unmarked) [Compound 189]: the IC50 on human 5-LOX is under 1 µM. The molecule further came in with an EC50 in assay [1] of over 20 µM.

As for `FC(F)(F)Oc1ccc(OCCn2c(N3CCCC3)nc3ccc(N4CCC4)cc32)cc1` [Compound 84], the IC50 on human 5-LOX is under 1 µM. This molecule also registered an EC50 in assay [1] of under 10 µM.

Take `N#CCCNc1nc2ccc(N)cc2n1Cc1ccc(Oc2ccc(Cl)cc2)cc1` [Compound 252]: the IC50 on human 5-LOX was under 1 µM. In assay [1], this molecule gave a concentration for a half-maximal effect (EC50) of under 10 µM.

As to `Cn1c(NCc2ccc(Oc3ccc(OC(F)(F)F)cc3)cc2)nc2ccc(N)cc21` [Compound 292], the 50% inhibitory concentration (IC50) at human 5-LOX was under 1 µM. The same molecule returned an EC50 in assay [1] of under 10 µM.

As to `COc1cc2[nH]c(NCc3ccc(Oc4ccc(Cl)cc4)cc3)nc2cc1N` [Compound 146], at human 5-LOX, the concentration for half-maximal inhibition (IC50) was under 1 µM. Also, the EC50 in assay [1] was in the range of 10 to 20 µM.

Take `O=C(NC1CCCC1)c1c[nH]nc1Nc1ccc2[nH]c(NCc3ccc(Oc4ccc(Cl)cc4)cc3)nc2c1` [Compound 19]: on human 5-LOX, the IC50 is under 1 µM.

Take `Nc1nc2ccc(Nc3n[nH]cc3C(=O)NC3CCCC3)cc2n1CCOc1ccc(OC(F)(F)F)cc1` [Compound 18]: the IC50 at human 5-LOX was 1 to 10 µM.

Consider `Nc1ccc2[nH]c(NCc3ccc(N4CCC(Oc5ccc(Cl)cc5)CC4)cc3)nc2c1` [Compound 2], for which, at human 5-LOX, the IC50 is under 1 µM.

Source of the values: patent publication US11447486B2, “2-amino-benzimidazole derivatives and their use as 5-lipoxygenase and/or prostaglandin E synthase inhibitors” (INSTITUT PASTEUR KOREA, priority 2014, dated 2022).
